Read-outs that look alike come from different tables or passages of the source.
Assays:
HIV-1 MN = assay type: cell-based
Method: Test groups included uninfected PBMCs, infected PBMCs with no N-glycolylneuraminic acid, and infected PBMCs plus N-glycolylneuraminic acid. […] Excess virus was removed by washing the cells with PBS one time then the cells were exposed to N-glycolylneuraminic acid. P24 output was measured using the DuPont P24 assay kit (optical density (OD) in Table 15). Syncytia formation was examined as well as cytopathic effects (CPE). […] Sample #7 (p24 123x10^6 pg HIV-1P24/ml) was excluded from the mean P24 output calculation due to a sampling error. […]

HIV-1RF = experiment: CEM-SS cell-based anti-HIV assay (XTT); settings: 3.2µM to 1 mM; CEM-SS cells
Method: (§1) Cell Preparation: Prior to infection, CEM-SS cells were grown in complete tissue culture medium (RPMI 1640 medium with 10% heat-inactivated fetal bovine serum, 2mM L-glutamine, 100 U/mL penicillin, 100 µg/mL streptomycin, 10 µg/mL gentamycin) and transferred to T-150 flasks. On the day preceding the assay, the cells were split 1:2 to assure the cells would be in an exponential growth phase at time of infection. On the day of assay, the cells were washed twice with tissue culture medium and resuspended in fresh tissue culture medium. Total cell and viability counting were performed using a hemacytometer and trypan blue dye exclusion. Cell viability was greater than 95% for the cells to be utilized in the assay. […]
Virus Preparation: Pre-tittered aliquots of HIV-1ROJO and HIV-1RF were removed from the freezer (-80°C) and thawed to room temperature in a biological safety cabinet. The virus was resuspended and diluted into tissue culture medium such that the amount of virus added to each well in a volume of 50 µL will be the amount determined to give complete cell killing at 6 days post-infection.
Tetrazolium dye staining of screening plates: After 6 days of incubation (37°C with 5% CO2), the test plates were analyzed by staining with the tetrazolium dye XTT (2,3-b (2-methoxy-4-nitro-5-sulfophenyl)-2H-tetrazolium -5-carboxanilide). […]

HIV-1IIIB [1] = experiment: PBMC cell-based anti-HIV assay; settings: PBMCs; laboratory strain
Method: For the standard PBMC assay, PHA-P stimulated cells from at least two normal donors were pooled, diluted in fresh medium to a final concentration of 1 x 10^6 cells/mL, and plated in the interior wells of a 96 well round bottom microplate at 50 µL/well (5 x 10^4 cells/well). Test drug dilutions were prepared at a 2X concentration in microfuge tubes and 100 µL of each concentration was placed in appropriate wells in a standard format. A predetermined dilution of virus stock was placed in each test well (50 µL, final MOI ≅ 0.1). Wells with cells and virus alone were used for virus control. Separate plates were prepared identically without virus for drug cytotoxicity studies using an XTT assay system. The PBMC cultures were maintained for seven days following infection, at which time cell-free supernatant samples were collected and assayed for reverse transcriptase activity as described below.
Reverse Transcriptase Activity Assay: A microtiter based reverse transcriptase (RT) reaction was utilized as described by Buckheit et al., (1991), AIDS Research and Human Retroviruses, 7:295-302. Tritiated thymidine triphosphate (^3H-TTP) was suspended in distilled H2O at 5 Ci/mL. […] Opti-Fluor-O (Packard) was added to each sample and incorporated radioactivity was quantified utilizing a Wallac 1450 MicroBeta Plus liquid scintillation counter. […]

HIV-1IIIB [2] = experiment: CEM-SS cell-based anti-HIV assay (XTT); settings: 3.2µM to 1 mM; CEM-SS cells
HIV-1 IIIB = experiment: HIV-1 P24 output, test solutions added post infection; assay type: cell-based; settings: Human immunodeficiency virus 1, IIIB; endpoint of the inhibition; read-out: lowest effective concentration for inhibition of HIV p24 output
Method: In addition, a similar experiment was performed, except that test solutions were added post infection, at the time of plating into the triplicate wells.

in vitro = assay type: cell-based; settings: human, cem-ss cells
Method: as §1
Tetrazolium dye staining of screening plates: After 6 days of incubation (37°C with 5% CO2), the test plates were analyzed by staining with the tetrazolium dye XTT (2,3-b (2-methoxy-4-nitro-5-sulfophenyl)-2H-tetrazolium -5-carboxanilide). XTT-tetrazolium is metabolized by mitochondrial enzymes of metabolically active cells to a soluble formazan product, allowing the rapid quantitative analysis of the inhibition of HIV-induced cell killing by anti-HIV compounds. […] Plates were sealed with adhesive plate sealers and inverted several times to mix the soluble formazan product and the plate was read spectrophotometrically at 450nm with a Molecular Devices Vmax plate reader. […]

Compound: O=C(CO)N[C@H]1[C@H]([C@H](O)[C@H](O)CO)OC(O)(C(=O)O)C[C@@H]1O (stereo partly shown) [N-glycolylneuraminic acid]
- CPE (HIV-1 MN; Neu5Gc dilution 1:2): negative
- O.D. (HIV-1 MN; Neu5Gc dilution 1:2): 0.017
- P-24 (HIV-1 MN; Neu5Gc dilution 1:2): 320 picograms HIV-1 p24 per mL
- Syncytia (HIV-1 MN; Neu5Gc dilution 1:2): negative
- CPE (HIV-1 MN; Neu5Gc dilution 1:4): negative
- O.D. (HIV-1 MN; Neu5Gc dilution 1:4): 0.043
- P-24 (HIV-1 MN; Neu5Gc dilution 1:4): 922 picograms HIV-1 p24 per mL
- Syncytia (HIV-1 MN; Neu5Gc dilution 1:4): negative
- CPE (HIV-1 MN; Neu5Gc dilution 1:8): negative
- O.D. (HIV-1 MN; Neu5Gc dilution 1:8): 0.057
- P-24 (HIV-1 MN; Neu5Gc dilution 1:8): 871 picograms HIV-1 p24 per mL
- Syncytia (HIV-1 MN; Neu5Gc dilution 1:8): negative
- CPE (HIV-1 MN; Neu5Gc dilution 1:16): negative
- O.D. (HIV-1 MN; Neu5Gc dilution 1:16): 0.061
- P-24 (HIV-1 MN; Neu5Gc dilution 1:16): 824 picograms HIV-1 p24 per mL
- Syncytia (HIV-1 MN; Neu5Gc dilution 1:16): negative
- CPE (HIV-1 MN; Neu5Gc dilution 1:32): negative
- O.D. (HIV-1 MN; Neu5Gc dilution 1:32): 0.012
- P-24 (HIV-1 MN; Neu5Gc dilution 1:32): 265 picograms HIV-1 p24 per mL
- Syncytia (HIV-1 MN; Neu5Gc dilution 1:32): negative
- CPE (HIV-1 MN; Neu5Gc dilution 1:64): negative
- O.D. (HIV-1 MN; Neu5Gc dilution 1:64): 0.041
- P-24 (HIV-1 MN; Neu5Gc dilution 1:64): 865 picograms HIV-1 p24 per mL
- Syncytia (HIV-1 MN; Neu5Gc dilution 1:64): negative
- cell viability (HIV-1 MN; human, pbmcs): 25%
- Mean p24 output (HIV-1 MN; samples treated with N-glycolylneuraminic acid (corrected for dilution factor)): 624± 326 pg HIV-1P24/ml
- anti-HIV activity (HIV-1RF): did not display anti-HIV activity
- anti-HIV activity (HIV-1IIIB [1]): inactive
- anti-HIV activity (HIV-1IIIB [2]): did not display anti-HIV activity
- minimal effective concentration (HIV-1 IIIB): 0.003 µg/mL
- CC50 at 144 h (in vitro): > 1000 µM
